Legend:
[1] = tested on: 66 c1.4 GFP murine mammary tumor cells; assay: Tumor growth of 66 c1.4-GFP mammary tumor cells in Balb/c mice (tumor volume); conditions: for inhibition of tumor growth: Example 18: liposomal formulation by aerosol
Method: 66 c1.4-GFP cells were harvested by trypsinization, centrifuged, resuspended in McCoy's media, containing no supplements at a density of 2×10^5/100 μl. Mice were injected in the inguinal area at a point equal distance between the 4th and 5th nipples on the right side using a 23 gauge needle.
50 mice were assigned (10 per group) to aerosol treatment, aerosol control, oral treatment, oral control, or to the no treatment group so that the average tumor volume for all groups were closely matched. […] Tumors were measured using calipers every other day, and volumes were calculated using the formula: volume (mm^3) [width (mm)^2×length (mm)]/2. Body weights were determined weekly.
Balb/c mice were injected with 200,000 66 c1.4 GFP cells subcutaneous in the mammary fat pad area between the 4th and 5th nipple on the right side of the body.
Mice are injected with 200,000 66 c1.4 GFP murine mammary tumor cells as described on day 0. Treatments are initiated on day 9 when tumors reached 1-3 mm in size. Aerosol treatments of α-TEA liposomes (5 mg α-TEA/mouse) are administered daily for 16 days (FIG. 8). Data represent the mean+/−Standard Error (SE), N=10 mice for control and treatment groups.
Balb/c mice were injected s.c. with 2×10^5 66 c1.4-GFP cells in the inguinal area between the 4th and 5th nipple on the right side of the body. When tumors reached 2×2-4×4 mm (9 days after tumor injection), mice were placed into 5 groups ((Group 1: untreated control, Group 2: liposome/aerosol control, Group 3: liposomal α-TEA aerosol treatment, Group 4: peanut oil/gavage control, Group 5: α-TEA in peanut oil/gavage treatment) of 10 mice/group) such that the mean tumor volume of each group was closely matched. Daily treatments were initiated on day 9 after tumor injection.
Balb/c mice were injected with 200,000 66 c1.4 GFP cells subcutaneous in the mammary fat pad area between the 4th and 5th nipple on the right side of the body. […] Animals were treated with α-TEA in liposome, vitamin E succinate in liposome, or control liposome alone via aerosol, 7 days per week, for 21 days. Animals were given 75 mg compound via nebulization per day such that each animal received 36 μg compound per day.
The size of the tumors, 9-21 days after injection of 200,000 66 c1.4 GFP cells between the 4th and 5th nipple on the right side of each mouse, is determined. Treatments are initiated on day 9 after tumor inoculation. Each group consists of n=10+/−SE. Gavage Treatment=Treatments of 5 mg of α-TEA in ethanol and peanut oil (0.1 ml volume) are administered daily starting on day 9 after tumor inoculation and continuing through day 21. Gavage Control=Mice received peanut oil and ethanol alone (0.1 ml volume)/daily, starting on day 9 after tumor inoculation and continuing through day 21. Data (tumor size) are depicted as the mean+/−standard error for days 9, 11, 13, 15, 17, 19, and 21.
Balb/c mice were injected with 200,000 66 c1.4 GFP cells subcutaneous in the mammary fat pad area between the 4th and 5th nipple on the right side of the body. […] Animals were treated with α-TEA in liposome vitamin E succinate in liposome, or control liposome alone via oral gavage, 2 times per day, 7 days per week, for 21 days. Animals were given a total of 6 mg compound per day.

[2] = tested on: MDA-MB-435 GFP FL cells; assay: Tumor growth of MDA-MB-435 GFP FL breast cancer cells in nude mice; format: in vivo, Nu/Nu athymic nude mice; conditions: Example 35: day 35
Method: Animals were given a total of 8 mg compound per day. […] Alpha-TEA liposome gavage reduced tumor growth by 68, 75, 78, 79 and 79% on days 27, 29, 31, 33, and 35, respectively (FIG. 15).
Animals were […] 3 ppm methylselenocysteine (MSC) in water, α-TEA in liposome via aerosol, or gavaged 10 mg/kg b.w. trans-resveratrol (t-RES) in first 1:1. EtOH:physiological saline, and starting at day 24, 6.5% EtOH and 93.5% Neobee oil. A combination group was treated with each of the above three compounds, and a control group was treated with aerosolized liposome. 100 μl water, and 50 μl of the t-Res solvent. Animals were treated seven days a week, for 35+ days.

[3] = tested on: 66 c1.4 GFP murine mammary tumor cells; assay: Lung and lymph node metastases of 66 c1.4-GFP tumors in Balb/c mice; format: in vivo; conditions: Example 31: liposomal formulation via gavage, 6 mg per day
Description: Metastastic lesions in the five lung lobes were counted visually at time of sacrifice. Fluorescent green micro-metastatic cancer cell colonies in the left lung lobe and lymph nodes were counted using a Nikon fluorescence microscope (TE-200) with a 20×objective (200× magnification) and Image-Pro Plus (version 4.1; Media Cybernetics, Silver Spring, Md.) software associated with the microscope. Fluorescent lesions were separated into three size grouping: <5 μm, 5-10 μm and >10 μm.
At sacrifice, lungs were taken, examined visually for metastatic lesions and frozen for analyses of micrometastases by fluorescence.
Use of a Nikon fluorescence microscope and Image-Pro Plus software permitted measurement of green fluorescing micrometastases into three size groupings of <5 μm, 5-10 μm and >10 μm.
At sacrifice, the left lung lobe of each mouse of flash frozen and saves for detection of GFP expressing micrometatstic lesions via fluorescent microscopy.

[4] = tested on: 66 c1.4-GFP cells; assay: Apoptosis by morphological evaluation of DAPI-stained nuclei; conditions: three days
Method: Briefly, 1×10^5 cells/well in 12-well plates were cultured overnight to permit attachment. […] After treatment, floating cells plus scraped-released adherent cells were pelleted by centrifugation for 5 min at 350×g, washed one time with phosphate buffered saline (PBS; 137 mM NaCl, 2.7 mM KCL, 10.4 mM Na2HPO4, 10.5 mM KH2PO4; pH 7.2), and stained with 2 μg/ml of 4′,6-diamidino-2-phenylindole dihydrochloride (DAPI, Boehringer Mannheim, Indianapolis, Ind.) in 100% methanol for 15 min at 37° C.
Cells were viewed at 400× magnification with a Zeiss ICM 405 fluorescent microscope using a 487701 filter. […] Data are reported as percentage of apoptotic cells per cell population, i.e., number apoptotic cells/total number of cells counted. Three different microscopic fields were examined and 200 cells counted at each location for a minimum of 600 cells counted per slide. Apoptotic data are presented as mean±S.D. for three independently conducted experiments.

[5] = 75 mg in nebulizer/day, day 15 of treatment
[6] = 75 mg in nebulizer/day, day 17 of treatment
[7] = Example 18: liposomal preparation delivered by aerosol

## CC(=O)Oc1c(C)c(C)c2c(c1C)CCC(C)(CCCC(C)CCCC(C)CCCC(C)C)O2 (racemic) [dl-α tocopherol acetate, dl-α-tocopherol acetate]
[1]; [5]
  inhibition of tumor growth: 29%
[1]; [6]
  inhibition of tumor growth: 57%

## Cc1cc(O)cc2c1O[C@](C)(CCC[C@H](C)CCC[C@H](C)CCCC(C)C)CC2 [RRR-delta tocopherol, RRR-delta-tocopherol]
[1]; [5]
  inhibition of tumor growth: 25%
[1]; [6]
  inhibition of tumor growth: 40%

## Cc1c(C)c2c(c(C)c1O)CC[C@@](C)(CCC[C@H](C)CCC[C@H](C)CCCC(C)C)O2 [RRR-α tocopherol, RRR-α-tocopherol]
[1]; [7]
  effect on tumor growth: enhanced tumor growth
  tumor volume compared with control mice: not significantly greater

## CC(C)=CCC/C(C)=C/CC/C(C)=C/CC[C@]1(C)CCc2c(C)c(O)c(C)c(C)c2O1 [RRR-α-tocotrienol]
[1]; [5]
  inhibition of tumor growth: 34%
[1]; [6]
  inhibition of tumor growth: 27%

## Cc1c(O)cc2c(c1C)O[C@](C)(CCC[C@H](C)CCC[C@H](C)CCCC(C)C)CC2 [RRR-γ tocopherol, RRR-γ-tocopherol]
[1]; [7]
  effect on tumor growth: enhanced tumor growth
  tumor volume compared with control mice: significantly higher

## Oc1ccc(/C=C/c2cc(O)cc(O)c2)cc1 [t-RES, trans-resveratrol, reference compound]
[2]
  increase of tumor volume from the control: 61.2%

## Cc1c(C)c2c(c(C)c1OC(=O)CCC(=O)O)CC[C@@](C)(CCC[C@H](C)CCC[C@H](C)CCCC(C)C)O2 [vitamin E succinate, RRR-α-tocopheryl succinate, reference compound]
[3]
  effect on lung metastasis: no effect on lung metastasis
  effect on lymph node micrometastatic lesions (FIG. 14B): not effective
[4]; 2.5 μg/ml
  apoptosis (percentage of apoptotic cells): 3%
[4]; 5 μg/ml
  apoptosis (percentage of apoptotic cells): 5%
[4]; 10 μg/ml
  nuclear morphology of DAPI stained cells: exhibited condensation and fragmented DNA
[1]; Example 26: liposome aerosol, 75 mg in nebulizer/day, day 17
  reduction of tumor growth: 76%
[1]; Example 30: liposome gavage, 6 mg per day, 21 days
  effect on tumor growth: did not reduce tumor growth

— patent US20030236301A1, “Liposomal delivery of vitamin E based compounds” (priority 2001, published 2003)
